For assay [1], the system named is A172. As to the kind of experiment: Vacuolation phenotype by S2 (Example 2). The following applies: A172, 30 μM, 6 hours. Format: cell-based, human. The method, then: (§1) U87MG, T98G, U251, SK-N-SH, A-172 and HepG2 cells were adherently cultured in MEM+10% FBS+1% P/S medium and passaged at 1:3; CT26.WT cells were adherently cultured in RPMI-1640+10% FBS+1% P/S medium and passaged at 1:3; CHO-K1 was cultured adherently in Ham's F-12K+10% FBS+[…] medium and passaged at 1:3.
(§2) The cells used above were resuscitated and passaged twice stably. When the cell density reached above 85%, the cells were digested with 0.05% trypsin-EDTA for 3 minutes, resuspended with the culture medium, and plated into a 6-well plate at a certain density, with each well system being 2 mL. The cells were cultured for 24 hours, added with 2 μL of the above-prepared S2 solution (final DMSO concentration 0.1%) to each well according to the grouping, such that the S2 concentration in the cell culture system reached 30 μM.
(§3) After 6 hours of drug treatment, the plate was observed under a microscope with a 20× objective lens, and five fields of view were randomly selected for each well to take photos and record. If bright vacuoles with clear border appeared in the cell in the observed field of view, and at least one of the following conditions was met: 1) a cell contained at least one vacuole with a diameter greater than […]; 2) a cell contained 3 or more vacuoles with a diameter within the range of […], the cell was considered as a methuosis-positive cell (Journal of Medicinal Chemistry 2018 61 (12), 5424-5434).
(§4) CELLpositive: the number of methuosis-positive cells; CELLnormal: the number of cells with normal morphology

The test system of assay [2] is HepG2. As to the kind of experiment: Vacuolation phenotype by S2 (Example 2). Format: cell-based, human. The following applies: HepG2, 30 μM, 6 hours. The method, then: as §1, §2, §3, §4
Another assay has as its system SK-N-SH. As to the kind of experiment: Vacuolation phenotype by S2 (Example 2). The following applies: 30 μM, 6 hours. The class given is cell-based, human. The method, then: as §1, §2, §3, §4
The subject of assay [3] is T98G. As to the kind of experiment: Vacuolation phenotype by S2 (Example 2). Format: cell-based, human. The conditions noted are these: 30 μM, 6 hours. The procedure: as §1, §2, §3, §4
Assay [4] relates to U251. As to the kind of experiment: Vacuolation phenotype by S2 (Example 2). Format: cell-based, human. The conditions noted are these: U251, 30 μM, 6 hours. The method, then:
as §1, §2, §3, §4

Another assay has as its system U87MG. As to the kind of experiment: Vacuolation phenotype by S2 (Example 2). Format: cell-based, human. The conditions noted are these: 30 μM, 6 hours. The method, then: as §1, §2, §3, §4
In another assay the test system is CHO-K1. As to the kind of experiment: Vacuolation phenotype by S2 (Example 2). The class given is cell-based, hamster. The following applies: non-tumor cell line CHO-K1, 30 μM, 6 hours. The procedure: as §1, §2
(§5) After 6 hours of drug treatment, the plate was observed under a microscope with a 20× objective lens, and five fields of view were randomly selected for each well to take photos and record. […]

In assay [5] the test system is A172. As to the kind of experiment: Cell viability assay (Example 2). The conditions noted are these: Homo sapiens, A 172; A172, 48 hours. The class given is cell-based. The procedure: as §1
(§6) The above various cells were resuscitated and stably passaged twice. When the cell density reached above 85%, the cells were digested with 0.05% trypsin-EDTA for three minutes, resuspended, plated in a 96-well plate at the corresponding density, and cultured for 24 hours. The cells were treated with drugs at final concentrations of the culture system of 0.41 μM, 1.23 μM, 3.7 μM, 11.1 μM, 33.3 μM, and 100 μM. After 48 hours of drug treatment, cell viability was determined using CellCounting-Lite™ 2.0 kit. The plate was added with reagents at 100 µL/well according to the CellCounting-Lite™ 2.0 kit instructions, and shaken for 10 minutes. The luminescence value (LUM) was read on a multi-function plate reader, and the relative viability of the cells was calculated.
(§7) Relative viability of tumor cells V (%)=(LUM-LUMbackground)/(LUMnormal control−LUMbackground)×100%. LUMbackground was the background reading of the complete culture medium well added with the detection reagent. The half inhibitory concentration (IC50) was calculated using GraphPad Prism 8.0.1 statistical software.

In a further assay the test system is CT26.WT. The assay can be described thus: Cell viability assay (Example 2). Format: cell-based. The conditions noted are these: Mus musculus, 48 hours. The method, then: as §1, §6, §7
For assay [6], the system named is HepG2. The assay can be described thus: Cell viability assay (Example 2). The class given is cell-based. The following applies: Homo sapiens; HepG2, 48 hours. The method, then: as §1, §6, §7
In assay [7] the test system is T98G. The assay can be described thus: Cell viability assay (Example 2). Format: cell-based. The conditions noted are these: Homo sapiens, 48 hours. The procedure:
as §1, §6, §7

Assay [8] has as its system U251. The assay can be described thus: Cell viability assay (Example 2). The class given is cell-based. The following applies: Homo sapiens, U-251; U251, 48 hours. The procedure: as §1, §6, §7
The subject of assay [9] is neural tumor cells and non-neural tumor systems. As to the kind of experiment: Cell viability assay, summary over tumor cell lines (Example 2). The conditions noted are these: neural and non-neural tumor cells of Table 3, 48 hours; read-out: IC50, range over tumor cell lines. Format: cell-based. The method, then: as §1, §6, §7
The test system of assay [10] is T98G subcutaneous transplantation tumor. The assay can be described thus: Human brain glioma T98G subcutaneous model in NOD SCID mice (Example 6). The class given is in vivo, NOD SCID mouse. The conditions noted are these: S2 3 mg/kg IV. The method, then: Human brain glioma T98G cells were cultured in vitro. The cells were cultured in EMEM medium added with 10% fetal calf serum, 100 U/mL penicillin and 100 µg/mL streptomycin, in a 37° C. 5% CO2 incubator. After the number of cells reached the required number, the cells were collected. 0.2 mL (10×10^6) of T98G tumor cells (PBS:Matrigel=1:1) were subcutaneously inoculated into the right back of each mouse. The mice were grouped and administered when the average tumor volume reached approximately 147 mm^3. […]
Tumor diameters were measured with vernier calipers twice a week, and tumors were weighed and photographed after the experiment.
1.5 Data Statistics The tumor volume was calculated as follows: V=0.5a×b^2, where a and b represent the long and short diameters of the tumor respectively.
The tumor inhibitory effect was evaluated by TGI (%) or relative tumor proliferation rate T/C (%).
The tumor inhibitory effect was calculated as TGI (%): TGI %=[1-(average tumor volume at the end of administration in a certain treatment group−average tumor volume at the beginning of administration in the treatment group)/(average tumor volume at the end of administration in the vehicle control group−average tumor volume in the vehicle control group at the beginning of treatment)]×100. […]

The subject of another assay is various tumor cells. As to the kind of experiment: Vacuolation by S2, summary over tumor cells (FIG. 2). The class given is cell-based. The method, then: as §1, §2, §5

We go through one compound from patent US20250057832A1, “USE OF A CLASS OF 1,4-DIHYDRO-NAPHTHYRIDINE DERIVATIVES IN TREATMENT OF TUMORS” (NEURODAWN PHARMACEUTICAL CO., LTD., priority 2021, published 2025).

Molecules are shown by their SMILES. “Also recorded” adds a separate entry of the source.

As usually defined, the IC50 is the midpoint of a concentration-inhibition curve. Turning to `CCOC(=O)C1=C(C)Nc2nc3c(c(N)c2C1c1ccccc1Cl)CC(C)(C)CC3` (stereo not shown) [Compound S2], the Induction of vacuolation result was “can induce vacuolation” in the assay with A172 [1]; “can also induce vacuolation” in the assay on HepG2 [2]; “can induce vacuolation” in the assay on SK-N-SH; “can induce vacuolation” with T98G [3]; “can induce vacuolation” in the assay on U251 [4]; “can induce vacuolation” with U87MG. Besides, the Induction of vacuolation result in the assay on CHO-K1 is given as “could not induce vacuolation”. The 50% inhibitory concentration (IC50) in the assay with A172 [5] is 4.7 µM; in the assay on CT26.WT, 7.1 µM; in the assay on HepG2 [6], 10.1 µM; with T98G [7], 9.4 µM; in the assay with U251 [8] it was 14.3 µM; in assay [9], 4.7 to 14.3 µM. Also, the “Tumor volume growth vs vehicle (FIG. 13A-C)” value in [10] is recorded as “significantly inhibited tumor volume growth; also recorded: inhibited the growth of T98 glioma”. Besides, in [10], the “Tumor weight at end of experiment vs control (FIG. 13D)” value is “significantly lower than that in the control group; also recorded: reduced the volume and weight of solid tumors”. Moreover, the “Induction of vacuolation (FIG. 2 legend)” value in the assay on various tumor cells was “induced vacuolation”.
